Results on one compound are retold here after paper PMC3491841 (EMBO Molecular Medicine, 2012).

Holding throughout (type): binding
Assay [1] has as its target T1, LdTOP1L (large subunit of L. donovani topoisomerase IB) (Leishmania donovani, UniProt A0A3Q8IHS4).
T1 sequence (A0A3Q8IHS4 1-635): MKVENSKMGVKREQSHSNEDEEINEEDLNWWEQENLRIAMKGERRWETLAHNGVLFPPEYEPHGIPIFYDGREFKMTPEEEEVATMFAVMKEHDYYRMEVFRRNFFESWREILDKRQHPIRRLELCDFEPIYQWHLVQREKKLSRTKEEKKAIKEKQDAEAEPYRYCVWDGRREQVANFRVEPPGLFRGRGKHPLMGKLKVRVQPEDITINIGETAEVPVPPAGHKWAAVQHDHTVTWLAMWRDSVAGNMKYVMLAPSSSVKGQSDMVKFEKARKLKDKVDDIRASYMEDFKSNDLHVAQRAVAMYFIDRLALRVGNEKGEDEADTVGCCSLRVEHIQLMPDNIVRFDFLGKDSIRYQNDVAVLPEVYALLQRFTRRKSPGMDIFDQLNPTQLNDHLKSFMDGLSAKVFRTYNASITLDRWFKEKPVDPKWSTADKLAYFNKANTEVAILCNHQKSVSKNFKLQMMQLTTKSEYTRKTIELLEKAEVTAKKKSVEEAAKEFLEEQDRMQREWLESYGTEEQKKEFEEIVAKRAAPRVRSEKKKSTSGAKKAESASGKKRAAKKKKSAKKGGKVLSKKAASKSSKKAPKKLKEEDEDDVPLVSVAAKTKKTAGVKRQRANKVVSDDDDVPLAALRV
Briefly: intrinsic tryptophan fluorescence quenching.

Assay [2] has as its target T2, LdTOP1S (small subunit of L. donovani topoisomerase IB) (Leishmania donovani, UniProt Q8WQM6).
T2 sequence (Q8WQM6 1-262): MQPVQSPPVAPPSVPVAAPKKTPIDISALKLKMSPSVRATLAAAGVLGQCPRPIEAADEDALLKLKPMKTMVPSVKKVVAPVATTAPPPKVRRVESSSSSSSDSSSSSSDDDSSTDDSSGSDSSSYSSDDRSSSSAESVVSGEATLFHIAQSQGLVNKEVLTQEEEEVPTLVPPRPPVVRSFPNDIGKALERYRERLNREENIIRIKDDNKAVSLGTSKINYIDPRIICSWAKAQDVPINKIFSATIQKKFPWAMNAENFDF
Kind of assay: intrinsic tryptophan fluorescence quenching.

The target in assay [3] is T3, LdTOP1LS (reconstituted heterodimeric topoisomerase IB) (Leishmania donovani, UniProt A0A3Q8IHS4+Q8WQM6).
T3 sequence (A0A3Q8IHS4 1-635): T1 sequence (A0A3Q8IHS4 1-635)
T3 sequence (Q8WQM6 1-262): T2 sequence (Q8WQM6 1-262)
Kind of assay: tryptophan fluorescence quenching.

The term Kd denotes the free concentration of one partner at which half of the binding sites on the other are occupied at equilibrium, for simple one-to-one binding. For `COC[C@@H](Cc1ccc(OC)c(OC)c1)[C@@H](COC)Cc1cc(OC)c2c(c1)OCO2` [niranthin], the Kd in assay [1] stood at 372 ± 260 nM; in assay [2], 169 ± 120 nM; in assay [3], 299 ± 160 nM.
